Literature values as cited in patent publication EP4420767A1, “MODULAR GREEN SOLVENT COMPOSITION FOR PREPARING POLYMERIC MEMBRANES” (Soft Chemicals S.r.l., priority 2023, dated 2024).

Settings: DMSO alone

freezing point: 18 °C
SMILES: C[S+](C)[O-] [DMSO, Dimethyl sulfoxide]
